Our source for the IC50, Drug uptake and Papp A→B values is ChEMBL document CHEMBL1649080, “Identification of a potent Janus kinase 3 inhibitor with high selectivity within the Janus kinase family” (J Med Chem, 2011).

In data set [1] the target is T1, Tyrosine-protein kinase JAK3 (Homo sapiens, UniProt P52333).
T1 sequence (P52333 whole entry): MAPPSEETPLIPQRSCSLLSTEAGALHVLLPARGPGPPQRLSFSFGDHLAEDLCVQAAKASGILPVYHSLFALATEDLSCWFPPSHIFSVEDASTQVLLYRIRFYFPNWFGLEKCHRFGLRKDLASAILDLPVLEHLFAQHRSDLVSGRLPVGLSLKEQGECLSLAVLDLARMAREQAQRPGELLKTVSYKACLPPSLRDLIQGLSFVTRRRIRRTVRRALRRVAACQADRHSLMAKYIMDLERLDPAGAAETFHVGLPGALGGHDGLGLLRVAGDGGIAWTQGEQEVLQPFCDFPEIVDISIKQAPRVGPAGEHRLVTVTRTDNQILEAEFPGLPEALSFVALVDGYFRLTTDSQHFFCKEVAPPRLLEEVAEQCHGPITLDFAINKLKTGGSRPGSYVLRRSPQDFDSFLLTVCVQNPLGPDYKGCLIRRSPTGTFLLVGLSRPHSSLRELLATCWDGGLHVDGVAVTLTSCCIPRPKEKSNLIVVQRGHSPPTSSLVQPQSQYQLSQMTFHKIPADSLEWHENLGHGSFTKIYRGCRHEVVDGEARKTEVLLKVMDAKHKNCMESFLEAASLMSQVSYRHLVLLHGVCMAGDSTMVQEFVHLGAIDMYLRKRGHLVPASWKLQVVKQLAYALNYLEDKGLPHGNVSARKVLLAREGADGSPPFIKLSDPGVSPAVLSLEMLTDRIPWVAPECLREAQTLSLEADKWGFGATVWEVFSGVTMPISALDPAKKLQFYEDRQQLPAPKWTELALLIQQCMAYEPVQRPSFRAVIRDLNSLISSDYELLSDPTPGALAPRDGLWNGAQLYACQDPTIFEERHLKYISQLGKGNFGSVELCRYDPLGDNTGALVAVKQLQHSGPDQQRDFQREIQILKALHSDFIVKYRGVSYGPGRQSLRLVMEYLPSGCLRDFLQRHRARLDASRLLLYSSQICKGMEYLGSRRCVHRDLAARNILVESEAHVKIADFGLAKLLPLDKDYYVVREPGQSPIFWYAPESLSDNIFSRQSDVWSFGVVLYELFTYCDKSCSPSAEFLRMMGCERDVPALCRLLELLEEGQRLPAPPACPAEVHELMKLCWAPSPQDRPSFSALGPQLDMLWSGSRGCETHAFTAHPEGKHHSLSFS
It is filed as cell-based.

Data set [2] concerns the target Tyrosine-protein kinase JAK1 (Homo sapiens, UniProt P23458).
Data set [3] addresses Tyrosine-protein kinase JAK2 (Homo sapiens, UniProt O60674).
For data set [4], the target named is Non-receptor tyrosine-protein kinase TYK2 (Homo sapiens, UniProt P29597).
Sequence of Non-receptor tyrosine-protein kinase TYK2 (P29597 whole entry): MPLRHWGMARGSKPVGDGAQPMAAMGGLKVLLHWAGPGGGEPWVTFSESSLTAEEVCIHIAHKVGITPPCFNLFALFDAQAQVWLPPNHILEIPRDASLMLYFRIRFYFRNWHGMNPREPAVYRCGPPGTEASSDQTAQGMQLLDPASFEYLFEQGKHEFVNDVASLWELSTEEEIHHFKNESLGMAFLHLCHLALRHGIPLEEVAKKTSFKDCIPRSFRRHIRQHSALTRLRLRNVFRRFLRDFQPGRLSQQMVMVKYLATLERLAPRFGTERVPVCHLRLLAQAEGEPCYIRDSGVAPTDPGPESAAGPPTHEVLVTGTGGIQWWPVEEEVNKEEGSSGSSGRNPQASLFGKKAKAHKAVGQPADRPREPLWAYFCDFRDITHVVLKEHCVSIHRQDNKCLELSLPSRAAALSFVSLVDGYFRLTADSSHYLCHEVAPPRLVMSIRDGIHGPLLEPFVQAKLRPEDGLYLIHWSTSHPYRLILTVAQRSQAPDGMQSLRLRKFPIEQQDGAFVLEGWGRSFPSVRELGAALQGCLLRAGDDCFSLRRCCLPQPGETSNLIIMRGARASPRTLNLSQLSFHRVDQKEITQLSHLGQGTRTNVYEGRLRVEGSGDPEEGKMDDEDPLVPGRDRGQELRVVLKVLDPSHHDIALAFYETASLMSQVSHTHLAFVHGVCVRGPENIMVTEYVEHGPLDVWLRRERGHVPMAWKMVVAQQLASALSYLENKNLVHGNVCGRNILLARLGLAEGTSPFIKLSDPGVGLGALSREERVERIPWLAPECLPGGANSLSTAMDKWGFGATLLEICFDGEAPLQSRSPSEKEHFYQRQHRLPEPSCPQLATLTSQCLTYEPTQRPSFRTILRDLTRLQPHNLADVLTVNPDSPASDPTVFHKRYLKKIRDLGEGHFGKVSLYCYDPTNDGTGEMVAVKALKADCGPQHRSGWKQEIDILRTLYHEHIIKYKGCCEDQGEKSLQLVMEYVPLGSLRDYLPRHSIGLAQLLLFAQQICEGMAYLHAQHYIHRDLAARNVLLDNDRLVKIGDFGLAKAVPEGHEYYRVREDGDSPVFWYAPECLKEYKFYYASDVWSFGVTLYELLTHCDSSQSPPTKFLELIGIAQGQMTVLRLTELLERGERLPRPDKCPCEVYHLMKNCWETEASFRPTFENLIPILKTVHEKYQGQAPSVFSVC
For data set [5], the target named is Protein kinase C alpha type (Homo sapiens, UniProt P17252). The experiment in a line: Inhibition of PKCalpha.
Data set [6] has as its target Protein kinase C theta type (Homo sapiens, UniProt Q04759). The experiment in a line: Inhibition of PKCtheta.
The target of data set [7] is Glycogen synthase kinase-3 beta (Homo sapiens, UniProt P49841). The experiment in a line: Inhibition of GSK3-beta.
Sequence of Glycogen synthase kinase-3 beta (P49841 whole entry): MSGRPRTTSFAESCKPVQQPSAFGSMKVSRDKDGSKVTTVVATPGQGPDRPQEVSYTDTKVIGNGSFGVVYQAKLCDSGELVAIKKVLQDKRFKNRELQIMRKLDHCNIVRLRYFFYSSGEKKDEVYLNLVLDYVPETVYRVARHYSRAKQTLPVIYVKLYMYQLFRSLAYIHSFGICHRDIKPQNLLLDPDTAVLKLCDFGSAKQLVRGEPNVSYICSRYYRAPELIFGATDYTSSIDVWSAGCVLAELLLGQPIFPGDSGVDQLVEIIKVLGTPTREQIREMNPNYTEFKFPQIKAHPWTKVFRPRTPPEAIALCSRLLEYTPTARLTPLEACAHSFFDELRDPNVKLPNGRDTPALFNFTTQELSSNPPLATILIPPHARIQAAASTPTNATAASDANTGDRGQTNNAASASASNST
For data set [8], the target named is T2, Tyrosine-protein kinase JAK3 (Mus musculus, UniProt Q62137).
T2 sequence (Q62137 whole entry): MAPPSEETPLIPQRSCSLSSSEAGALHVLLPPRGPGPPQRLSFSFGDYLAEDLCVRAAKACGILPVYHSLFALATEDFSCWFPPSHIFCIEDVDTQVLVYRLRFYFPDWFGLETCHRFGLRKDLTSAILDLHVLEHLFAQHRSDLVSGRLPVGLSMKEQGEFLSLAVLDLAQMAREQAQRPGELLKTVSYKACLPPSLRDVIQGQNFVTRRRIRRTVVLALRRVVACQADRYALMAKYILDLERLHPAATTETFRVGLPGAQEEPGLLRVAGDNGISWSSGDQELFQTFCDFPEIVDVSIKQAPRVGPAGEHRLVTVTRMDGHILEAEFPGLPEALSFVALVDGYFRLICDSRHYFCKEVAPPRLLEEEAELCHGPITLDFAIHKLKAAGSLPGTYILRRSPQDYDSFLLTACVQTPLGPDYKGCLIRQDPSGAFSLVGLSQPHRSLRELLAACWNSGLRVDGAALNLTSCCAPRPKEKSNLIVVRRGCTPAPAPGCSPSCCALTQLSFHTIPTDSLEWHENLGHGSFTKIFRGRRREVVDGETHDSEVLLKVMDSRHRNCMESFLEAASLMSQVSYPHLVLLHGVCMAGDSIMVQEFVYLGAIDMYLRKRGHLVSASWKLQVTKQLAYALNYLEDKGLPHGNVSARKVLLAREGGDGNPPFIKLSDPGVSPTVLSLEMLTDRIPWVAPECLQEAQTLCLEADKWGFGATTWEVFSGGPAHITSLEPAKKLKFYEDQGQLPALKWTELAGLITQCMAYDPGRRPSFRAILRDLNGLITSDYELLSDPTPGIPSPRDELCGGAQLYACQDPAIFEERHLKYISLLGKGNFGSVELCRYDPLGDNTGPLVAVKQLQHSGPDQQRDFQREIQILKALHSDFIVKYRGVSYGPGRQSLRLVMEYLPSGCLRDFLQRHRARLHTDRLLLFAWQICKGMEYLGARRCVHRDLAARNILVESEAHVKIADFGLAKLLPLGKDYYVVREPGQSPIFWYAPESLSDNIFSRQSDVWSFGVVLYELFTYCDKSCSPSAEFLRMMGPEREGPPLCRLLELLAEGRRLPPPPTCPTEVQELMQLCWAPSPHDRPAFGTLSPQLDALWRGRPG
Description: Inhibition of Jak3-mediated IL2-induced Stat5 phosphorylation in mouse CTLL cells by cell-based assay

For data set [9], the system named is Jurkat. The conditions noted are these: human, 0.33 µM.
Description: Drug uptake in human Jurkat cells assessed as whole cell extract measured per 50000 cells at 0.33 uM in growth medium by LC-MS/MS analysis
Data set [10] deals with Jurkat. Conditions: human, 1 µM.
Description: Drug uptake in human Jurkat cells assessed as whole cell extract measured per 50000 cells at 1 uM in growth medium by LC-MS/MS analysis
Data set [11] has as its system Jurkat. The conditions noted are these: human, 3.3 µM.
Description: Drug uptake in human Jurkat cells assessed as whole cell extract measured per 50000 cells at 3.3 uM in growth medium by LC-MS/MS analysis
Data set [12] concerns Jurkat. Conditions: human, 10 µM.
Description: Drug uptake in human Jurkat cells assessed as whole cell extract measured per 50000 cells at 10 uM in growth medium by LC-MS/MS analysis
Data set [13] concerns CTLL. Conditions: mouse, 0.33 µM.
Description: Drug uptake in mouse CTLL cells assessed as whole cell extract measured per 50000 cells at 0.33 uM in growth medium by LC-MS/MS analysis
The subject of data set [14] is CTLL. Conditions: mouse, 1 µM.
Description: Drug uptake in mouse CTLL cells assessed as whole cell extract measured per 50000 cells at 1 uM in growth medium by LC-MS/MS analysis
The test system of data set [15] is CTLL. The conditions noted are these: mouse, 3.3 µM.
Description: Drug uptake in mouse CTLL cells assessed as whole cell extract measured per 50000 cells at 3.3 uM in growth medium by LC-MS/MS analysis
Data set [16] deals with CTLL. Conditions: mouse, 10 µM.
Description: Drug uptake in mouse CTLL cells assessed as whole cell extract measured per 50000 cells at 10 uM in growth medium by LC-MS/MS analysis
The subject of data set [17] is Jurkat. Description: cells. Conditions: Homo sapiens.
Description: Inhibition of antiTCR/antiCD28-stimulated IL2 production in human Jurkat cells by measuring bioluminescence
Another data set can be described thus: in vitro. Conditions: human, Caco-2.

The structures appear in SMILES notation.

Sequence of Tyrosine-protein kinase JAK2 (O60674 whole entry): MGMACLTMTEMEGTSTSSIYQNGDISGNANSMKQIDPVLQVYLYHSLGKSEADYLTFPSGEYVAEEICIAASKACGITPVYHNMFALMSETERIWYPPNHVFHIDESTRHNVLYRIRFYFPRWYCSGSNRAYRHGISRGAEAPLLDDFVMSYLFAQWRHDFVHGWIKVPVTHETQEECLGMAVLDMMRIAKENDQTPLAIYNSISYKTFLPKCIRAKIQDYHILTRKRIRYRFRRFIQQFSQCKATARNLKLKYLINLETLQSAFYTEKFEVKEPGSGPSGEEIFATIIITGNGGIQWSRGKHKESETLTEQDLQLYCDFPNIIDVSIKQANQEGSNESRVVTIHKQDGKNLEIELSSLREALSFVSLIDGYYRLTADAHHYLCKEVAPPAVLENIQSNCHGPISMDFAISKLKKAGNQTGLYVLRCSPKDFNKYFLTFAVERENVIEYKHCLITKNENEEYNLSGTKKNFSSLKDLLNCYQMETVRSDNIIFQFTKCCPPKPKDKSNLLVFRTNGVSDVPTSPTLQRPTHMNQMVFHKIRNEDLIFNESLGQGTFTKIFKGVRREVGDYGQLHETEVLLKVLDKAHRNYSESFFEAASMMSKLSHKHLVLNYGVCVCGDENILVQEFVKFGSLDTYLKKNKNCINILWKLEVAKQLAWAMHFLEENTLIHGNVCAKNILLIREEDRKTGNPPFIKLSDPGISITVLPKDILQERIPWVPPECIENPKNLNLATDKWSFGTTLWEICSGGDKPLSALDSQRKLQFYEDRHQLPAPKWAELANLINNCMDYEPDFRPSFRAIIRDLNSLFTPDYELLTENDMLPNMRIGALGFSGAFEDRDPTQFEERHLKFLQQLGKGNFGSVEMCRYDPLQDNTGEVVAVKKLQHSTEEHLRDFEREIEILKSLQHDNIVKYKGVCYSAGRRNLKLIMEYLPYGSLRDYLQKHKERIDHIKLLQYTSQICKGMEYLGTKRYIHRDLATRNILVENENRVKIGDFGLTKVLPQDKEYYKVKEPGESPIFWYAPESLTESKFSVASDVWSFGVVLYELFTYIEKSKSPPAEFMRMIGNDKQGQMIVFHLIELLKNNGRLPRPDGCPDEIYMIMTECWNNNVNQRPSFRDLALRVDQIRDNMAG
Sequence of Tyrosine-protein kinase JAK1 (P23458 whole entry): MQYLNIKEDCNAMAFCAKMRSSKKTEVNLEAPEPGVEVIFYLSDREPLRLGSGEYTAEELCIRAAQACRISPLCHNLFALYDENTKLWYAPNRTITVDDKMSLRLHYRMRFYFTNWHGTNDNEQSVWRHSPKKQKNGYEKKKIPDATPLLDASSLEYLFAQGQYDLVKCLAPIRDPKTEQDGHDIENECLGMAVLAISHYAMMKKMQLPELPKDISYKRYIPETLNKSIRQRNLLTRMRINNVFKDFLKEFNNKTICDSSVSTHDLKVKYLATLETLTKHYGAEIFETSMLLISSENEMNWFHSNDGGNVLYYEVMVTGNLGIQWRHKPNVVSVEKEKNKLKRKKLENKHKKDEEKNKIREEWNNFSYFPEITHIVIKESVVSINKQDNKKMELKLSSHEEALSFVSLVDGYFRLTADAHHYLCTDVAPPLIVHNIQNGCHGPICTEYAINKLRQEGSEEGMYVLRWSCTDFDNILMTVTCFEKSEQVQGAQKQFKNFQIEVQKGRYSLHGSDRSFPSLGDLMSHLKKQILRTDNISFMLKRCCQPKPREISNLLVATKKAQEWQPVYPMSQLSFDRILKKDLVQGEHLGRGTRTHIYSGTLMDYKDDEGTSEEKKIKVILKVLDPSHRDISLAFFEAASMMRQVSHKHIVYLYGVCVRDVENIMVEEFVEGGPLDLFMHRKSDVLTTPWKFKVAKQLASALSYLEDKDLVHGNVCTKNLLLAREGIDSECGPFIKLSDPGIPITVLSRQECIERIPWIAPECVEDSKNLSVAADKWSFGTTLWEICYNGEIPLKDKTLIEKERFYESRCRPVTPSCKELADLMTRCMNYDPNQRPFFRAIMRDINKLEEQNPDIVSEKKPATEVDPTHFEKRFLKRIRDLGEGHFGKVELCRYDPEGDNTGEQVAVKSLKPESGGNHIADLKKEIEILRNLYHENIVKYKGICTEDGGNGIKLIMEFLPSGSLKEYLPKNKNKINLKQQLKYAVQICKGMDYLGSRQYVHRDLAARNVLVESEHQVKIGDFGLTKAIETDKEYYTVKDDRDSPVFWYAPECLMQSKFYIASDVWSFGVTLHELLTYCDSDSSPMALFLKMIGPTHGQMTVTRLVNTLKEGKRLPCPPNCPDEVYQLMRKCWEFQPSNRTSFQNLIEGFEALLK
Sequence of Protein kinase C theta type (Q04759 whole entry): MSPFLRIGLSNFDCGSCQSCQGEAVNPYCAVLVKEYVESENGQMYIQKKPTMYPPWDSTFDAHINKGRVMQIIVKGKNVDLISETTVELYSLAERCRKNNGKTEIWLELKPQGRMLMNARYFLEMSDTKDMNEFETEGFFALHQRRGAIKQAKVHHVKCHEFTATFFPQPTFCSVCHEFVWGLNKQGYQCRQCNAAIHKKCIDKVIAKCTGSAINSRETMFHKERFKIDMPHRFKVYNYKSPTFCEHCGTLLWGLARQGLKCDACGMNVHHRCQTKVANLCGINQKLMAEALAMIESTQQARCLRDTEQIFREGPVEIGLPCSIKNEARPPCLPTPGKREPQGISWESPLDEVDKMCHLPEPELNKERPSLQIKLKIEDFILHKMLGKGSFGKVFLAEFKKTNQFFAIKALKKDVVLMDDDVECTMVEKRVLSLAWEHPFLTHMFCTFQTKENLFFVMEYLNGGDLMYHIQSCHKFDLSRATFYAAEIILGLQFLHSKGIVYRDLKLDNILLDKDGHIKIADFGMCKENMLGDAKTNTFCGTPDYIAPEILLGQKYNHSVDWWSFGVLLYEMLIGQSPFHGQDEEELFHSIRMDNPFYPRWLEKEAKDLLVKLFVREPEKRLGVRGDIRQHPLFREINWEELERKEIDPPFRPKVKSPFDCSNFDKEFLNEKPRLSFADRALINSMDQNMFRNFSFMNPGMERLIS

As to `O=C1NC(=O)C(c2c[nH]c3ccccc23)=C1c1cc(N2CCOCC2)ccc1C(F)(F)F`, the IC50 was 460 nM in data set [1], 6500 nM in data set [2], above 10000 nM in data set [3] and above 10000 nM in data set [4].

For `O=C1NC(=O)C(c2c[nH]c3ccccc23)=C1c1cc(F)ccc1C(F)(F)F`, the IC50 in [1], in data set [2], in data set [3] and in data set [4] was above 10000 nM in each case.

As for `CC(C)(O)C(=O)N1CCN(c2ccc(C(F)(F)F)c(C3=C(c4c[nH]c5ccccc45)C(=O)NC3=O)c2)CC1`, the IC50 was found to be 13 nM in [5]; 68 nM in [6]; 3 nM in data set [7]; 1290 nM in data set [8]; 689 nM in the data set on Jurkat [17]. The Drug uptake in the data set with Jurkat [9] is on record as 2.4 pmol; in the data set with Jurkat [10] it was 7.88 pmol; with Jurkat [11], 23.48 pmol; in the data set on Jurkat [12], 55.58 pmol; with CTLL [13], 3.12 pmol; with CTLL [14] it was 10.97 pmol. For the same compound, the Drug uptake in the data set on CTLL [15] worked out at 31.27 pmol; in the data set on CTLL [16], 64.33 pmol. Besides, the apparent permeability from apical to basolateral (Papp A→B) in “in vitro” stood at 3 ×10⁻⁶ cm/s.

Turning to `CN(C)c1ccc(C(F)(F)F)c(C2=C(c3c[nH]c4ccccc34)C(=O)NC2=O)c1`, the IC50 in [1] was 423 nM; in data set [2] it was 4700 nM; in [3], 9150 nM; in data set [4], above 10000 nM.

As to `O=C1NC(=O)C(c2c[nH]c3ccccc23)=C1c1cc(N2CCNCC2)ccc1C(F)(F)F`, the half-inhibitory concentration (IC50) was 133 nM in [1], 737 nM in data set [2], 4700 nM in data set [3] and above 10000 nM in data set [4].

With `O=C1CCN(c2ncc(C(F)(F)F)c(C3=C(c4c[nH]c5ccccc45)C(=O)NC3=O)n2)CC1`, the IC50 in data set [2] is 253 nM; in data set [3] it was 330 nM; in data set [4], 4330 nM.

For `O=CN1CCN(c2ccc(C(F)(F)F)c(C3=C(c4c[nH]c5ccccc45)C(=O)NC3=O)c2)CC1`, the half-inhibitory concentration (IC50) in data set [1] turned out to be 36 nM; in [2], 754 nM; in [3] it was 1440 nM; in data set [4] it was 5040 nM.

What is called IC50 is the point on the concentration scale where inhibition reaches its midpoint. Low values mean inhibition by little substance, high ones a need for much substance. As usually defined, the Papp A→B is the apparent permeability from the apical to the basolateral side of a cell layer. A low value points to slow passage.
